Data from ChEMBL document CHEMBL1147982, “Structure, inhibitor, and regulatory mechanism of Lyp, a lymphoid-specific tyrosine phosphatase implicated in autoimmune diseases” (Proc Natl Acad Sci U S A, 2007).
The source made the active and inactive calls. No cut-off for these calls is given here.

Assays:
[1] = target: Dual specificity protein phosphatase 3 (Homo sapiens, UniProt P51452); test: Inhibition of VHR
[2] = target: T1, Tyrosine-protein phosphatase non-receptor type 7 (Homo sapiens, UniProt P35236); test: Inhibition of HePTP
T1 sequence (P35236 whole entry): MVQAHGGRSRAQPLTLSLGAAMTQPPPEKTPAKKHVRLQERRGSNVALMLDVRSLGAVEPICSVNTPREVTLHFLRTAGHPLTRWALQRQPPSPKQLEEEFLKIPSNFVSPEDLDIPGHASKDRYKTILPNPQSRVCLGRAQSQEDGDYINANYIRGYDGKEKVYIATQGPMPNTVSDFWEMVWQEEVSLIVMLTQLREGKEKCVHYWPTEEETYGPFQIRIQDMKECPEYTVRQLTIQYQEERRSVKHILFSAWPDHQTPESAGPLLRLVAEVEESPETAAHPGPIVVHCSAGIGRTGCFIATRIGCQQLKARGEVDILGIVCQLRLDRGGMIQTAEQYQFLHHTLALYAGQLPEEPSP

[3] = target: Receptor-type tyrosine-protein phosphatase F (Homo sapiens) (UniProt P10586); test: Inhibition of LAR at 100 uM
[4] = target: Receptor-type tyrosine-protein phosphatase alpha (Homo sapiens) (UniProt P18433); test: Inhibition of PTPalpha at 100 uM
Sequence of Receptor-type tyrosine-protein phosphatase alpha (Homo sapiens) (P18433 20-802 limits assumed): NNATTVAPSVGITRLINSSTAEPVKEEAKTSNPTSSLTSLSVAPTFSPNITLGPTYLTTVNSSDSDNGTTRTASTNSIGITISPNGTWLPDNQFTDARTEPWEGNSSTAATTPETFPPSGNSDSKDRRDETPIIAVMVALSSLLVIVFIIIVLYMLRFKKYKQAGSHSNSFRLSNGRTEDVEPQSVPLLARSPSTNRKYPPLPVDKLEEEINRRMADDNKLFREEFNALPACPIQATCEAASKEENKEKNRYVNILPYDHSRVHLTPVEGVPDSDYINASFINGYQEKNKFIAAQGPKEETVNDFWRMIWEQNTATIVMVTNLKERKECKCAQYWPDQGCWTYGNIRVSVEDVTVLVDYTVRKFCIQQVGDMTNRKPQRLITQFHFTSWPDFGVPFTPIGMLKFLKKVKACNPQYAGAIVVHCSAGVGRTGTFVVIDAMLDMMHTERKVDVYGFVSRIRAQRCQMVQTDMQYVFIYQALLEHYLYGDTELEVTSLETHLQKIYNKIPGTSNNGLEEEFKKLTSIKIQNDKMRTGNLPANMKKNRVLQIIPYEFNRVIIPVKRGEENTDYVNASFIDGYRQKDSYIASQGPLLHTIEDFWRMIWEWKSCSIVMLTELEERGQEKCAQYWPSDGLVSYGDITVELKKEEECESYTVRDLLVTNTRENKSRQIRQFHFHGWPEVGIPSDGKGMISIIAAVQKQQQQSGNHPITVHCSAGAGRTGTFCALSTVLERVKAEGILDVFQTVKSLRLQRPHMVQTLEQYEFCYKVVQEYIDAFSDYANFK

[5] = target: T2, Tyrosine-protein phosphatase non-receptor type 11 (Homo sapiens, UniProt Q06124); test: Inhibition of SHP2
T2 sequence (Q06124 whole entry): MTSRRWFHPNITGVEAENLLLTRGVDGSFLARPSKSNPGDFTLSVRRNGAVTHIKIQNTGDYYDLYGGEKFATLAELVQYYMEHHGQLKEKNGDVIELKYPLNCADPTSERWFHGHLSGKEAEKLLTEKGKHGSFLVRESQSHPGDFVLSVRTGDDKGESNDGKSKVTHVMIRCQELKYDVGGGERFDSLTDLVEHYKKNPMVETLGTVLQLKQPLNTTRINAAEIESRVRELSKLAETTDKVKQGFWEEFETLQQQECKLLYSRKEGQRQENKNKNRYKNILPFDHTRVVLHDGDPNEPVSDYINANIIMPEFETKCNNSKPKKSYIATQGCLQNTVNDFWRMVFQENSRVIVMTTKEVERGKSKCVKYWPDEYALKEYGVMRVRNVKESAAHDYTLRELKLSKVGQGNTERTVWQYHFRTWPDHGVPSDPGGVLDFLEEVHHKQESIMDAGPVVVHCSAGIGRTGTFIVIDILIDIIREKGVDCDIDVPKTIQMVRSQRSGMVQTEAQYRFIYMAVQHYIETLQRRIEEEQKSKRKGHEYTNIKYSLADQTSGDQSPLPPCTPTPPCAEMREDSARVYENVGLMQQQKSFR

[6] = target: Tyrosine-protein phosphatase non-receptor type 13 (Homo sapiens, UniProt Q12923); test: Inhibition of FAP1
Sequence of Tyrosine-protein phosphatase non-receptor type 13 (Q12923 whole entry): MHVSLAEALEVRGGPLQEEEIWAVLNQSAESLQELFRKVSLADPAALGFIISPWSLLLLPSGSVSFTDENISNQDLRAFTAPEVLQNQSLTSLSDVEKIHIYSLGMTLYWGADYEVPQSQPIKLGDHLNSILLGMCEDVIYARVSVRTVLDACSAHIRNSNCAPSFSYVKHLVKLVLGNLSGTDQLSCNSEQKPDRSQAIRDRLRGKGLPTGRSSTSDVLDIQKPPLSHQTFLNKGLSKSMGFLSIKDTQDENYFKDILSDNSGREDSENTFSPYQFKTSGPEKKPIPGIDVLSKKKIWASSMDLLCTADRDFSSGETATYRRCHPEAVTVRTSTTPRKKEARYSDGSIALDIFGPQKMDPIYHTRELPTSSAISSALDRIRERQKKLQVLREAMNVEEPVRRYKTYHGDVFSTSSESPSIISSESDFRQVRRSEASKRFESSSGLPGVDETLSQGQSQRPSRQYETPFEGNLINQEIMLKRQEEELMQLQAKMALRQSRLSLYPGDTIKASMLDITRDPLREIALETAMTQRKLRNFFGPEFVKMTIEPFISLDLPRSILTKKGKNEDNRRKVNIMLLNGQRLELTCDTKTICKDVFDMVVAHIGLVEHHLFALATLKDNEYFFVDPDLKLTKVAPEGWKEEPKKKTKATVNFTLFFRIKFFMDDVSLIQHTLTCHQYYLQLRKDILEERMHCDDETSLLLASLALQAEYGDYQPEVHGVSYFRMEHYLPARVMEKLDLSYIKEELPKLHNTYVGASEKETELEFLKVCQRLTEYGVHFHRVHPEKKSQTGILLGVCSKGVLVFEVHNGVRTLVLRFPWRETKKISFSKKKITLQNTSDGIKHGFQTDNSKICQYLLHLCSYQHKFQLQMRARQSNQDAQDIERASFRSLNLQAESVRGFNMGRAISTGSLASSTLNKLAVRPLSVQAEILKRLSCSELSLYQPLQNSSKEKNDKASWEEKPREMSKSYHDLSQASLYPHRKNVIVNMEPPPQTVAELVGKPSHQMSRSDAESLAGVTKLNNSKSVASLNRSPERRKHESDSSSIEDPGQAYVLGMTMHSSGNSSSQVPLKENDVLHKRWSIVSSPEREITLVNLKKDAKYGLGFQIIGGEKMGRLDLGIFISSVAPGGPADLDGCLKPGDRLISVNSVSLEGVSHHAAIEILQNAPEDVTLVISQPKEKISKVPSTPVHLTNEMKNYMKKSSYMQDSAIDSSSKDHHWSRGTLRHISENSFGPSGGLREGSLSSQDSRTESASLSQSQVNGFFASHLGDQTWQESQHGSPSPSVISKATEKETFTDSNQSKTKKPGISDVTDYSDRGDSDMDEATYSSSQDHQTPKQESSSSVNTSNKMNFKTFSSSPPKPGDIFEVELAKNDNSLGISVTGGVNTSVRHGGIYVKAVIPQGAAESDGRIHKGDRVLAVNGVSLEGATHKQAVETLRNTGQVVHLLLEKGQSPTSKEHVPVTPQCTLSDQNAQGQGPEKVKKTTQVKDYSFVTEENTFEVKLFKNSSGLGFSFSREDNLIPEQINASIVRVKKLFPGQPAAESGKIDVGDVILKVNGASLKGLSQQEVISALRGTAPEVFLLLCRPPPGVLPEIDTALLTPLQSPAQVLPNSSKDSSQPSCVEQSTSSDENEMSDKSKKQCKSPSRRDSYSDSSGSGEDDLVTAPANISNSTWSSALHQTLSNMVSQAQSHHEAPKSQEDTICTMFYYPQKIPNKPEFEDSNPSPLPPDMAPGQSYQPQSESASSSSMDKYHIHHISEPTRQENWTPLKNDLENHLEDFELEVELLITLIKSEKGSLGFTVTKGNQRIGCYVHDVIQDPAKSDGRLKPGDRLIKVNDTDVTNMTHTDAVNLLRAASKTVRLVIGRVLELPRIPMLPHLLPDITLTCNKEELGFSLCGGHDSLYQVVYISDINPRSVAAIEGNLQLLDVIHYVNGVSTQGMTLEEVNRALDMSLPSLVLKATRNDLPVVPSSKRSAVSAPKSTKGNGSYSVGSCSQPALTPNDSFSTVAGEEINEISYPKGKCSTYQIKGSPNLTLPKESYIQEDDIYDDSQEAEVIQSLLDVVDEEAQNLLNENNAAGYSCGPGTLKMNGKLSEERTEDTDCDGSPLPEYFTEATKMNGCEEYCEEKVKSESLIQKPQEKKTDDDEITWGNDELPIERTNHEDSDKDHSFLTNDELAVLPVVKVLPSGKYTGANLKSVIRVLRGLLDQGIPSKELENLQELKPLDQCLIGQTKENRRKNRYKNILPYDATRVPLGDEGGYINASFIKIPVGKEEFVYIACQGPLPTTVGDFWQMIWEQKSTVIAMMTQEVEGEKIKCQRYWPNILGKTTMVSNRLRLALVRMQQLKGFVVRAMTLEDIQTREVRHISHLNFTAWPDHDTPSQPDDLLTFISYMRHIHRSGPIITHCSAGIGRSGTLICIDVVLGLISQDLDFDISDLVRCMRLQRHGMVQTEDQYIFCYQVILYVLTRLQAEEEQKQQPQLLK

[7] = target: T3, Receptor-type tyrosine-protein phosphatase C (Homo sapiens, UniProt P08575); test: Inhibition of CD45
T3 sequence (P08575 whole entry): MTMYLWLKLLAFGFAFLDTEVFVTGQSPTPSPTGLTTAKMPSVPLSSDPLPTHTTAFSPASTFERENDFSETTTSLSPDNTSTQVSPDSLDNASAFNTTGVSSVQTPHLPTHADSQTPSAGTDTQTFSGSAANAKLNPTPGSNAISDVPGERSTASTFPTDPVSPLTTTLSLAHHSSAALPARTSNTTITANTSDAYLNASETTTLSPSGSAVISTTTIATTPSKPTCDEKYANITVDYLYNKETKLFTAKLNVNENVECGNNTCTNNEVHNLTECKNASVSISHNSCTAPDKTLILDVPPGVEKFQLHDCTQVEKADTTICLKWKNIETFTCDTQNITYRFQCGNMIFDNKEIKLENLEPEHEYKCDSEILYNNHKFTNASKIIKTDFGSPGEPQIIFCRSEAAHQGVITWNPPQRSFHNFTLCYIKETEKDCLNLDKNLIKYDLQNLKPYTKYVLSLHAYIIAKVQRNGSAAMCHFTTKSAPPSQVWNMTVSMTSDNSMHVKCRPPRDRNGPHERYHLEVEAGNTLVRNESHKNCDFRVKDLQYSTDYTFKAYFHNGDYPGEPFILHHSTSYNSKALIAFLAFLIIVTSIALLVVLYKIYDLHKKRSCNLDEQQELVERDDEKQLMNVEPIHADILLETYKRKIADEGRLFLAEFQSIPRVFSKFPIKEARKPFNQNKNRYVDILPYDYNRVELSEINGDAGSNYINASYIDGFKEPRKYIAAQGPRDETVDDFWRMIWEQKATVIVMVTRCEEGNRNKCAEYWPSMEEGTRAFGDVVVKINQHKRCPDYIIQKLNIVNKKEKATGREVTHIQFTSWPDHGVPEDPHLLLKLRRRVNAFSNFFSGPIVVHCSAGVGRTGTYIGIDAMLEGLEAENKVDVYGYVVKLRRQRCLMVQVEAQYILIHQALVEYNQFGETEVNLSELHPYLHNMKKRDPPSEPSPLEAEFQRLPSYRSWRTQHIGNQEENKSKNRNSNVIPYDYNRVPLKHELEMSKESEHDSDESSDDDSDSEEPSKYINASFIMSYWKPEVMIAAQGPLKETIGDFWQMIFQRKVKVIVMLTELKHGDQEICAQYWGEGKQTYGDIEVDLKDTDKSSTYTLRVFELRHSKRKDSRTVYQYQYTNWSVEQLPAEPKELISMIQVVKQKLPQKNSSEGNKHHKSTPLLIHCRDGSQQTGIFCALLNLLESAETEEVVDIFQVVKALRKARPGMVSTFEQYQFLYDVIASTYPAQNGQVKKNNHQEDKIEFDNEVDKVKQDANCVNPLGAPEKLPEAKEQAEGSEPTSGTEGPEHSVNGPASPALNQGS

[8] = target: T4, Tyrosine-protein phosphatase non-receptor type 9 (Homo sapiens, UniProt P43378); test: Inhibition of PTP-Meg2
T4 sequence (P43378 whole entry): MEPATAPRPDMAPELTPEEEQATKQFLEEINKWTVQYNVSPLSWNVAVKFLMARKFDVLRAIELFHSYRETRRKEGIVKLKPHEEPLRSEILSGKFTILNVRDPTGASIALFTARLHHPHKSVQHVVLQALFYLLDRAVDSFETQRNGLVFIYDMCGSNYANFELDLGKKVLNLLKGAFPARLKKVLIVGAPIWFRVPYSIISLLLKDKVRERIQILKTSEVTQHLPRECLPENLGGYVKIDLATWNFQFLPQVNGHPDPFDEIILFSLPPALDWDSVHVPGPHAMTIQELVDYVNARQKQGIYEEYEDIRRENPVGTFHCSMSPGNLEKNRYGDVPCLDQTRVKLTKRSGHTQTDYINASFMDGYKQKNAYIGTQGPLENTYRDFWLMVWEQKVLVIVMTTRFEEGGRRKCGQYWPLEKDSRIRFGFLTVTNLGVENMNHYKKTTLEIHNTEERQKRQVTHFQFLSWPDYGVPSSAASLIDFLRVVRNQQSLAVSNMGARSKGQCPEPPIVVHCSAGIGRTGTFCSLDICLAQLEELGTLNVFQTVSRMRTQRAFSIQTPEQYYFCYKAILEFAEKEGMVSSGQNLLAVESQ

[9] = Inhibition of lymphoid-specific tyrosine phosphatase pLyp35 mutant
[10] = target: T5, Tyrosine-protein phosphatase non-receptor type 1 (Homo sapiens, UniProt P18031); test: Inhibition of PTP1B
T5 sequence (P18031 whole entry): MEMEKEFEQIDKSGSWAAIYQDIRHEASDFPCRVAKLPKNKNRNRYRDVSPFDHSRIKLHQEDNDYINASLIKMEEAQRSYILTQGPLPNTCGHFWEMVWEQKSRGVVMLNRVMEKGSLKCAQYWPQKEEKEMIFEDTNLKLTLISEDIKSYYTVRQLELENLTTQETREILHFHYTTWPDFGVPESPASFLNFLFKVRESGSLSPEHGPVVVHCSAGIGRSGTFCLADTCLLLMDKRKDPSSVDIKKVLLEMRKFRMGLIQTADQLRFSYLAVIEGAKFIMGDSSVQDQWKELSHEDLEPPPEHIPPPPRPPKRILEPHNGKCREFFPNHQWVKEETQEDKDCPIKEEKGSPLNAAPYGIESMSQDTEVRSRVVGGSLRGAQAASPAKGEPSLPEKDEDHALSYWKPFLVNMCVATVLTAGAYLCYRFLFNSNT

Sequence of Dual specificity protein phosphatase 3 (P51452 whole entry): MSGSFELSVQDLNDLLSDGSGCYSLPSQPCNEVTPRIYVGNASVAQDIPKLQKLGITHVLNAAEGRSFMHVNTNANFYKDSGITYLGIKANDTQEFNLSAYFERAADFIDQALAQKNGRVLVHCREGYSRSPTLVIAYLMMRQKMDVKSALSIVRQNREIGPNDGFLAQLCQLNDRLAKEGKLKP

IC50 [1]: 103 µM
IC50 [2]: 32.1 µM
Activity [3]: inactive
Activity [4]: inactive
IC50 [5]: 36 µM
IC50 [6]: 36.8 µM
IC50 [7]: 186 µM
IC50 [8]: 31.8 µM
IC50 [9]: 48 µM
IC50 [10]: 11.8 µM
Structure (SMILES): O=C(CCCn1cc(-c2c(-c3ccccc3)oc3cc(O)c(C(=O)O)cc23)nn1)Nc1cccc2ccccc12
